Results reported in the NIST ThermoML archive (doi:10.1021/je5010643).

Test: refractive index (Na D-line) (dimensionless); xn = mol fraction of the nth substance listed
Conditions: 101.32 kPa, Liquid, Standard Abbe refractometry

CC(C)C(=O)O [2-methylpropanoic acid] + C1COCCO1
refractive index
Conditions | x2 = 0 | x2 = 0.1 | x2 = 0.2 | x2 = 0.3 | x2 = 0.4 | x2 = 0.5 | x2 = 0.6 | x2 = 0.7 | x2 = 0.8 | x2 = 0.9
295.15 K | 1.3919 | 1.3955 | 1.3988 | 1.4021 | 1.4052 | 1.4082 | 1.411 | 1.4137 | 1.4161 | 1.4185
298.15 K | 1.3907 | 1.3942 | 1.3974 | 1.4007 | 1.4038 | 1.4068 | 1.4096 | 1.4122 | 1.4146 | 1.4171
301.15 K | 1.3895 | 1.3929 | 1.3961 | 1.3993 | 1.4024 | 1.4054 | 1.4082 | 1.4107 | 1.4132 | 1.4156
304.15 K | 1.3883 | 1.3916 | 1.3948 | 1.3979 | 1.401 | 1.4039 | 1.4067 | 1.4093 | 1.4117 | 1.4141
307.15 K | 1.3872 | 1.3904 | 1.3936 | 1.3967 | 1.3997 | 1.4026 | 1.4054 | 1.4079 | 1.4103 | 1.4127
310.15 K | 1.386 | 1.3891 | 1.3923 | 1.3953 | 1.3983 | 1.4011 | 1.4038 | 1.4063 | 1.4087 | 1.4112
313.15 K | 1.3849 | 1.3879 | 1.391 | 1.3941 | 1.397 | 1.3998 | 1.4025 | 1.4049 | 1.4073 | 1.4098
